In this test the target is T1, ArcD1 (Lactococcus cremoris, UniProt A2RNI5).
T1 construct: plasmid pNZarcD1, nisin-inducible; expressed in L. lactis deltaarcD1D2 cells
T1 sequence (A2RNI5 1-526): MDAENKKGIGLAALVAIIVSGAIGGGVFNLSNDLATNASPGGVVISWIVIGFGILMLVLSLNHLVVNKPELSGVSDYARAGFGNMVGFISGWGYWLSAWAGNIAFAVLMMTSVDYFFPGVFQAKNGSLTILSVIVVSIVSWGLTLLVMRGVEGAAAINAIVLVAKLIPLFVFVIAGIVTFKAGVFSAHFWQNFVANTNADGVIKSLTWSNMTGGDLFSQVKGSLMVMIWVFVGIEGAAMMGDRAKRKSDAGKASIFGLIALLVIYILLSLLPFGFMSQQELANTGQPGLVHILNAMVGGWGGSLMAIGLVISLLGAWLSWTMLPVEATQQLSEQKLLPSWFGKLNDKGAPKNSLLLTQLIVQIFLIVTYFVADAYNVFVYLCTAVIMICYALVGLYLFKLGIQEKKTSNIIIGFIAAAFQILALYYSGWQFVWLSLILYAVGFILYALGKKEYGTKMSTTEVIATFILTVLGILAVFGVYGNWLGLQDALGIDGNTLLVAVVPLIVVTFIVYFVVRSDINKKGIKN
Kind of test: inhibition of […]L-ornithine uptake in resting cells. The test is classed as cell-based. The following applies: read-out: ArcD1 / KI ^b (μm).

Regarding `NC(=O)NCCC[C@H](N)C(=O)O` [L‐Citr, L‐citrulline], the Ki was 529 ± 135 µM.

Source of the values: article PMC5300872, “Convergent evolution of the arginine deiminase pathway: the ArcD and ArcE arginine/ornithine exchangers” (MicrobiologyOpen, 2016).
